Assay results reported in US9056865B2, “Pyridine-2-derivatives as smoothened receptor modulators” (Pfizer Inc., priority 2010, dated 2015).
pIC50: −log10 of the molar value.

Assays:
human Smo = human Smo (Homo sapiens (Human), UniProt Q99835); assay: Smo radioligand competition binding assay; conditions: for inhibition at 0.05 µM: 0.05 μM test compound, read-out: Smo % inh. @ 0.05 μM
Description: Smo Radioligand Competition Binding Assay
Membranes were prepared from a stable cell line created in HEK293FlpIn-TetR cells (Invitrogen) using Flp recombinase-mediated insertion of the pSecTag-FRT/V5-His vector containing a cDNA encoding amino acids […] of human Smo fused to the murine Igk leader sequence to produce a cell surface expressed Smo 181-781 protein. Hygromycin-resistant clones were obtained and stained for LacZ expression (no expression indicates a correct knock-in of fusion cDNA). LacZ-negative cells were analyzed for binding tritiated Smo antagonists. For membrane preparation, the HEK293 cells expressing Smo 181-781 were grown to 90% confluence in nine to fifteen 245 mm×245 mm×22 mm dishes, washed with Dulbecco's PBS (15 mL per dish) and harvested via scraping in 10 mL of DPBS. The cells were collected and centrifuged at 1500 rpm (400×g) for 10 min at 4° C. The cell pellets were re-suspended in 40 mL of cold DPBS and washed by centrifugation at 2300 rpm (950×g max) for 10 minutes at 4° C. The supernatant was aspirated and the cell pellet was snap frozen in a methanol/dry ice bath and stored at −70° C. For membrane preparation, 15 mL of Membrane Preparation Buffer (50 mM Tris-HCl pH 7.5, 250 mM sucrose with Roche complete protease cocktail tablets) was added to the tube containing the cell pellet, then cells are rapidly thawed, and homogenized using an Ultra-Turrax T8 (IKA Labortechnik) set on “6” for 15 seconds for 5-6 times in icy water bath. This homogenate was diluted up to 50 mL using Membrane Preparation Buffer and centrifuged at 35,000 rpm in a Beckman Ti45 rotor (140,000×g) for 35 minutes at 4° C. followed by aspiration of the supernatant and re-suspension of the pellet in 5 mL of Assay Buffer (50 mM Tris-HCl pH 7.5, 100 mM NaCl, 25 mM MgCl2, 1 mM EDTA, and 0.1% protease free bovine serum albumin). The re-suspended pellet was then homogenized in a glass tissue grinder. The re-suspended membranes were aliquoted (0.5 mL aliquots), snap frozen and stored at −70° C. Total protein in the membrane preparation was determined using the Pierce BCA protein assay (Pierce Chemical).
For the binding competition assay, 100 μL of Assay Buffer was added to all the wells of a 96 well GF/B filter plate (Millipore MultiScreen-HTS-FB cat# MSFBN6B50) for 10 minutes to pre-wet the filter prior to evacuation of the buffer (8 inches Hg for 8 seconds). To the pre-wet wells is added: 20 μL of Assay Buffer, 10 μL diluted test agent, 20 μL of a tritiated Smo antagonist (15 nM stock solution), and 50 μL of membrane preparation (40 μg total protein per well). The plates are sealed and mixed at room temperature for 5 min, incubated at room temperature for 2 hours, then washed 5 times with 100 μL/each of wash buffer and vacuum dried for 8 seconds at 8 inches Hg. The plate is then dried for one hour in a 60° C. oven prior to the addition of 45 μL of Microscint 20 (Packard, #6013621) to each well and incubation at RT for 30 minutes to 1 hour. The plate is counted in a TopCount scintillation counter (Perkin Elmer).
Data analysis uses Excel for % Inhibition and Graphpad Prism for IC50 calculation. Total binding (TB, in the absence of inhibitors)=average of tritiated Smo antagonist 3 nM+Smo membrane (40 μg/wells (approx 5000-7000 CPM)). Non-specific binding (NSB)=average of tritiated Smo antagonist (3 nM)+cold Smo antagonist (30 μM)+Smo membrane (approx 600-1200 CPM). Specific binding (SB)=(total binding−non-specific binding). % Inhibition=[1−(compound Specific binding/control Specific binding)]×100%. IC50 is calculated by fitting the data to the four parameter sigmoidal dose-response curve (variable slope) Y=Bottom+(Top-Bottom)/(1+10^((LogEC50−X)*HillSlope)). X is the logarithm of the inhibitor concentration. Y is the response; Y starts at Bottom and goes to Top with a sigmoid shape.

Gli-Luc/MEF cells = assay: Gli-Luc/MEF assay; format: cell-based, mouse; conditions: Mus musculus, MEF; Shh-stimulated luciferase, 48 hours
Description: The Gli-Luc/MEF cells obtained from Gli-Luc transgenic mice contain a luciferase reporter gene under the control of the Gli response element. Luciferase activity stimulated with Sonic hedgehog ligand was inhibited by Smo inhibitors, and IC50 was subsequently calculated.
Plates were incubated at 37° C. and 5% CO2 overnight. On day two, cells were dosed with test compounds at a final concentration ranging from 3 μM to 50 μM at a 3-time series dilution. Immediately after dosing cells with compounds, recombinant mouse sonic hedgehog (Shh, R&D Systems 464-SH) was added to a final concentration of 2 μg/mL. The cells were incubated with compounds and Shh for 48 hours at 37° C. and 5% CO2. Luciferase assays were conducted on Day 4 using the Bright-Glo Luciferase assay system (Promega E2620) according to Promega's protocol. Briefly, Bright-Glo luciferase reagent was made up and 25 μL were added to each well of the 384-well plate containing media. Plates were kept at room temperature for 5 minutes, and then read on an Envision Luminescence plate reader (Perkin-Elmer). IC50 of the inhibition was calculated by using GraphPad Prism.

Sequence of human Smo (Q99835 181-787): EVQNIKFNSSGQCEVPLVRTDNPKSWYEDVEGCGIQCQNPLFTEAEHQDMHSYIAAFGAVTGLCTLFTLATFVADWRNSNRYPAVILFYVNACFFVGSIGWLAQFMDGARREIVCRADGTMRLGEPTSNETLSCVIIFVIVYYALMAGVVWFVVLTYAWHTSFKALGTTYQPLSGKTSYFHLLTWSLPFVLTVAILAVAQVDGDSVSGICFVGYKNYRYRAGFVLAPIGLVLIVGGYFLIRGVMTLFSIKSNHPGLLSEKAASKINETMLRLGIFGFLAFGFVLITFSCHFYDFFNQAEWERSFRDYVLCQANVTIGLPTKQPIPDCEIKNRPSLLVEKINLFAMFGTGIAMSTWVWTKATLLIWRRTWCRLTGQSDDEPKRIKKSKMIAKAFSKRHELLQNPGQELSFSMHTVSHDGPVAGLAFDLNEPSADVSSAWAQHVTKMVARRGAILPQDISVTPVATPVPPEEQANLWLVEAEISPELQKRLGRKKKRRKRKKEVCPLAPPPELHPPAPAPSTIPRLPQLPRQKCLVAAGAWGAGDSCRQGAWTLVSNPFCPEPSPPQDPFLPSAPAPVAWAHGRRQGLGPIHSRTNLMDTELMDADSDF

SMILES | pIC50 (human Smo) | inhibition at 0.05 µM (human Smo) | pIC50 (Gli-Luc/MEF cells)
Cc1cccnc1-c1cc(N2CCC(CS(C)(=O)=O)CC2)ncc1Cl [Example A-51, 5′-chloro-3-methyl-2′-{4-[(methylsulfonyl)methyl]piperidin-1-yl}-2,4′-bipyridine] | 7.45 | 87.8% | 7.63
Cc1cccnc1-c1cc(N2CCC(NC(=O)CC(C)(C)O)CC2)ncc1Cl [Example A-52, N-(1-(5′-chloro-3-methyl-[2,4′-bipyridin]-2′-yl)piperidin-4-yl)-3-hydroxy-3-methylbutanamide] | 7.27 | 90.6% | 7.55
CS(=O)(=O)CC1CCN(c2ccc(Cl)c(-c3ccccn3)n2)CC1 [Example A-53, 3-chloro-6-{4-[(methylsulfonyl)methyl]piperidin-1-yl}-2,2′-bipyridine] | 7.42 | 93.3% | 7.56
Cc1cccnc1-c1cc(N2CCC(C(=O)NCc3ncc[nH]3)CC2)ncc1Cl [Example A-54, 1-(5′-chloro-3-methyl-2,4′-bipyridin-2′-yl)-N-(1H-imidazol-2-ylmethyl)piperidine-4-carboxamide] | 7.19 | 86.1% | 7.26
Cc1cccnc1-c1cc(N2CCC(C(=O)NC3(c4ccccn4)CC3)CC2)ncc1Cl [Example A-55, 1-(5′-chloro-3-methyl-2,4′-bipyridin-2′-yl)-N-(1-pyridin-2-ylcyclopropyl)piperidine-4-carboxamide] | 7.20 | 83.7% | 7.60
Cc1cccnc1-c1cc(N2CCC(C(=O)N3CCC(Nc4ccccn4)CC3)CC2)ncc1Cl [Example A-56, N-(1-{[1-(5′-chloro-3-methyl-2,4′-bipyridin-2′-yl)piperidin-4-yl]carbonyl}piperidin-4-yl)pyridin-2-amine] | 6.97 | 80.5% | 7.38
Cc1cccnc1-c1cc(N2CCC(C(=O)N[C@@H]3CCN(S(C)(=O)=O)C3)CC2)ncc1Cl [Example A-57, 1-(5′-chloro-3-methyl-2,4′-bipyridin-2′-yl)-N-[(3R)-1-(methylsulfonyl)pyrrolidin-3-yl]piperidine-4-carboxamide] | 7.04 | 87.9% | 7.11
Cc1cccnc1-c1cc(N2CCC(C(=O)N[C@@H]3c4ccccc4C[C@@H]3O)CC2)ncc1Cl [Example A-58, 1-(5′-chloro-3-methyl-2,4′-bipyridin-2′-yl)-N-[(1R,2S)-2-hydroxy-2,3-dihydro-1H-inden-1-yl]piperidine-4-carboxamide] | 6.74 | 70.3% | 7.41
COc1cnc(NC(=O)C2CCN(c3cc(-c4ncccc4C)c(Cl)cn3)CC2)cn1 [Example A-59, 1-(5′-chloro-3-methyl-2,4′-bipyridin-2′-yl)-N-(5-methoxypyrazin-2-yl)piperidine-4-carboxamide] | 7.15 | 89.5% | 7.67
Cc1cccnc1-c1cc(N2CCC(C(=O)N[C@H]3CCN(S(C)(=O)=O)C3)CC2)ncc1Cl [Example A-60, 1-(5′-chloro-3-methyl-2,4′-bipyridin-2′-yl)-N-[(3S)-1-(methylsulfonyl)pyrrolidin-3-yl]piperidine-4-carboxamide] | 7.17 | 83.8% | 7.24
Cc1cccnc1-c1cc(N2CCC(C(=O)NCCC3C(=O)Nc4ccccc43)CC2)ncc1Cl (stereo not drawn) [Example A-61, 1-(5′-chloro-3-methyl-2,4′-bipyridin-2′-yl)-N-[2-(2-oxo-2,3-dihydro-1H-indol-3-yl)ethyl]piperidine-4-carboxamide] | 7.39 | 91.9% | 7.43
Cc1cccnc1-c1cc(N2CCC(C(=O)N3CC(S(=O)(=O)CC4CC4)C3)CC2)ncc1Cl [Example A-62, 5′-chloro-2′-[4-({3-[(cyclopropylmethyl)sulfonyl]azetidin-1-yl}carbonyl)piperidin-1-yl]-3-methyl-2,4′-bipyridine] | 6.63 | 72.4% | 6.97
Cc1cccnc1-c1cc(N2CCC(C(=O)NC[C@H]3CCCO3)CC2)ncc1Cl [Example A-63, 1-(5′-chloro-3-methyl-2,4′-bipyridin-2′-yl)-N-[(2R)-tetrahydrofuran-2-ylmethyl]piperidine-4-carboxamide] | 6.86 | 82.5% | 7.08
Cc1cccnc1-c1cc(N2CCC(C(=O)NCC3(O)CCC3)CC2)ncc1Cl [Example A-64, 1-(5′-chloro-3-methyl-2,4′-bipyridin-2′-yl)-N-[(1-hydroxycyclobutyl)methyl]piperidine-4-carboxamide] | 6.80 | 78.1% | 6.96
Cc1cccnc1-c1cc(N2CCC(C(=O)N3CCc4c(c(C(C)C)nn4C)C3)CC2)ncc1Cl [Example A-65, 5′-chloro-2′-{4-[(3-isopropyl-1-methyl-1,4,6,7-tetrahydro-5H-pyrazolo[4,3-c]pyridin-5-yl)carbonyl]piperidin-1-yl}-3-methyl-2,4′-bipyridine] | 6.84 | 78.5% | 6.91
Cc1cccnc1-c1cc(N2CCC(C(=O)N[C@@H]3CC[C@@H](O)C3)CC2)ncc1Cl [Example A-66, 1-(5′-chloro-3-methyl-2,4′-bipyridin-2′-yl)-N-[(1R,3R)-3-hydroxycyclopentyl]piperidine-4-carboxamide] | 6.79 | 81.7% | 7.03
Cc1cccnc1-c1cc(N2CCC(C(=O)NCCS(C)(=O)=O)CC2)ncc1Cl [Example A-67, 1-(5′-chloro-3-methyl-2,4′-bipyridin-2′-yl)-N-[2-(methylsulfonyl)ethyl]piperidine-4-carboxamide] | 6.66 | 70.4% | 6.79
Cc1cccnc1-c1cc(N2CCC(C(=O)N[C@@H]3CS(=O)(=O)C[C@H]3O)CC2)ncc1Cl [Example A-68, 1-(5′-chloro-3-methyl-2,4′-bipyridin-2′-yl)-N-[(3S,4S)-4-hydroxy-1,1-dioxidotetrahydro-3-thienyl]piperidine-4-carboxamide] | 6.92 | 88.8% | 7.26
Cc1cccnc1-c1cc(N2CC(C(=O)N(C)[C@@H]3CS(=O)(=O)C[C@H]3O)C2)ncc1Cl [Example A-69, 1-(5′-chloro-3-methyl-2,4′-bipyridin-2′-yl)-N-[(3S,4S)-4-hydroxy-1,1-dioxidotetrahydro-3-thienyl]-N-methylazetidine-3-carboxamide] | 6.72 | 74.4% | 6.83
